We go through 2 compounds from ChEMBL document CHEMBL1136164, “Carbonic anhydrase inhibitors: X-ray crystallographic structure of the adduct of human isozyme II with a bis-sulfonamide-two heads are better than one?” (Bioorg Med Chem Lett, 2003).

Test [1] is filed under the species Oryctolagus cuniculus. As to the kind of experiment: Prolonged IOP lowering by the compound in glaucomatous rabbit for 3 hours. It counts as functional.
Test [2] is filed under the species Oryctolagus cuniculus. As to the kind of experiment: Prolonged IOP lowering by the compound in glaucomatous rabbit for 5 to 6 hours. It counts as functional.

Compound `CCN[C@H]1C[C@H](C)S(=O)(=O)c2sc(S(N)(=O)=O)cc21` [DORZOLAMIDE] came in with an IOP lowering in the test listed under Oryctolagus cuniculus [1] of 3.6 mmHg.
In the test listed under Oryctolagus cuniculus [2], `NS(=O)(=O)c1ccc(CCNC(=O)c2ccc(S(N)(=O)=O)cc2)cc1` registered an IOP lowering of 9.5 mmHg.
